Laboratory results reported in patent publication US7659401B2, “Thiazolo[4,5-C]pyridine derivatives” (Hoffmann-La Roche Inc., priority 2005, dated 2010).

target: T1, human mGlu 5a receptor (Homo sapiens, UniProt P41594); experiment: [3H]MPEP competition binding on membranes of EBNA cells transiently transfected with human mGlu 5a receptor; conditions: displacement of [3H]MPEP (2 nM), 1 h at 4° C., Ki=IC50/[1+L/Kd]
T1 construct: expressed in transfected cells; host or cells: EBNA cells (transient transfection); cell membrane homogenates
T1 sequence (P41594 21-1180 isoform P41594-2 limits assumed): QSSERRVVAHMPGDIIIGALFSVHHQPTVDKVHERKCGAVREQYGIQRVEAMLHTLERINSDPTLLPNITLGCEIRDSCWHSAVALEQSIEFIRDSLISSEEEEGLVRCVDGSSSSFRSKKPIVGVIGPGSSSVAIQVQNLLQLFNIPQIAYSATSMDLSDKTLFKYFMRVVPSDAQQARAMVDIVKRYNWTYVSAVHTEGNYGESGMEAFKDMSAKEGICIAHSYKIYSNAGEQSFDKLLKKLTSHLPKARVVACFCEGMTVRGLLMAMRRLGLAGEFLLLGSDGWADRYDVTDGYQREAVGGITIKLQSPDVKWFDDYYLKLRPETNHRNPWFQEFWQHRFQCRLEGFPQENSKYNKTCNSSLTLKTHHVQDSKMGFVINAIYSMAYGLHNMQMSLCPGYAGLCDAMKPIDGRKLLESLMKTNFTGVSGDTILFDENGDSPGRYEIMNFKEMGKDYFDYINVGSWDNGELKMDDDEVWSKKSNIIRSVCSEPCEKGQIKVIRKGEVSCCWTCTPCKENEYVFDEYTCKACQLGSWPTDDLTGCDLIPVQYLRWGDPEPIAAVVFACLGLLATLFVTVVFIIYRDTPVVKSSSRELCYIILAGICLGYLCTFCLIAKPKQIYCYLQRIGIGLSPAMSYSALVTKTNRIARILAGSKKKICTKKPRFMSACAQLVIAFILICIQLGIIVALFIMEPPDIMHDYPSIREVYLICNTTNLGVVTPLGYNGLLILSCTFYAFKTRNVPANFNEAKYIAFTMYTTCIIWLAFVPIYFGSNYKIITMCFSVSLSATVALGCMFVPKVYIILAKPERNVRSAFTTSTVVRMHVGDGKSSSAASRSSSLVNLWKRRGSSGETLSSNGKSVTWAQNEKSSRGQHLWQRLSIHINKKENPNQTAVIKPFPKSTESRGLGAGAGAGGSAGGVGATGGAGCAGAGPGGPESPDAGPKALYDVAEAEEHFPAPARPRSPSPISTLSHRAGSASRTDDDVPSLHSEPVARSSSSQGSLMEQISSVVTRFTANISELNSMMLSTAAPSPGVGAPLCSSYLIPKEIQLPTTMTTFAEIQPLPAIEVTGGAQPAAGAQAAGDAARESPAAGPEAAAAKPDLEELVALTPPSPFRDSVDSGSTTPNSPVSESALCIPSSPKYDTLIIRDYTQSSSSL
Description: The pharmacological activity of the compounds was tested using the following method: For binding experiments, cDNA encoding human mGlu 5a receptor was transiently transfected into EBNA cells using a procedure described by Schlaeger and Christensen [Cytotechnology 15:1-13 (1998)]. Cell membrane homogenates were stored at −80° C. until the day of assay where upon they were thawed and resuspended and polytronised in 15 mM Tris-HCl, 120 mM NaCl, 100 mM KCl, 25 mM CaCl2, 25 mM MgCl2 binding buffer at pH 7.4 to a final assay concentration of 20 μg protein/well.
Saturation isotherms were determined by addition of twelve [^3H]MPEP concentrations (0.04-100 nM) to these membranes (in a total volume of 200 μL) for 1 h at 4° C. Competition experiments were performed with a fixed concentration of [^3H]MPEP (2 nM) and IC50 values of test compounds evaluated using 11 concentrations (0.3-10,000 nM). Incubations were performed for 1 h at 4° C.
At the end of the incubation, membranes were filtered onto unifilter (96-well white microplate with bonded GF/C filter preincubated 1 h in 0.1% PEI in wash buffer, Packard Bio-Science, Meriden, Conn.) with a Filtermate 96 harvester (Packard BioScience) and washed 3 times with cold 50 mM Tris-HCl, pH 7.4 buffer. Nonspecific binding was measured in the presence of 10 μM MPEP. The radioactivity on the filter was counted (3 min) on a Packard Top-count microplate scintillation counter with quenching correction after addition of 45 μl of microscint 40 (Canberra Packard S.A., Zürich, Switzerland) and shaking for 20 min.
For binding experiments the Ki values of the compounds tested are given. The Ki value is defined by the following formula: Ki=IC50/[1+L/Kd] in which the IC50 values are those concentrations of the compounds tested which cause 50% inhibition of the competing radioligand ([^3H]MPEP). L is the concentration of radioligand used in the binding experiment and the Kd value of the radioligand is empirically determined for each batch of membranes prepared.

Structure (SMILES) | Ki
Cc1nc2c(Nc3cccc(Cl)c3)nccc2s1 [Example 1] | 26 nM
Cc1nc(Nc2ncc(-c3cccnc3)c3sc(C)nc23)cs1 [Example 2, (2-Methyl-7-pyridin-3-yl-thiazolo[4,5-c]pyridin-4-yl)-(2-methyl-thiazol-4-yl)-amine] | 37 nM
Cc1csc(Nc2ncc(-c3cccnc3)c3sc(C)nc23)n1 [Example 3, (2-Methyl-7-pyridin-3-yl-thiazolo[4,5-c]pyridin-4-yl)-(4-methyl-thiazol-2-yl)-amine] | 42 nM
Cc1nc2c(Nc3ccc(F)cn3)ncc(-c3cccnc3)c2s1 [Example 4] | 40 nM
Cc1nc2c(Nc3ccn(C)n3)ncc(-c3cccnc3)c2s1 [Example 5] | 167 nM
Cc1csc(Nc2ncc(-c3cncnc3)c3sc(C)nc23)n1 [Example 9] | 61 nM
Cc1nc(Nc2ncc(-c3ccnc(Cl)c3)c3sc(C)nc23)cs1 [Example 14, [7-(2-Chloro-pyridin-4-yl)-2-methyl-thiazolo[4,5-c]pyridin-4-yl]-(2-methyl-thiazol-4-yl)-amine] | 45 nM
Cc1nccc(Nc2ncc(-c3cccc(S(C)(=O)=O)c3)c3sc(C)nc23)n1 [Example 17, [7-(3-Methanesulfonyl-phenyl)-2-methyl-thiazolo[4,5-c]pyridin-4-yl]-(2-methyl-pyrimidin-4-yl)-amine] | 128 nM
Cc1csc(Nc2ncc(-c3cc(F)cc(F)c3)c3sc(C)nc23)n1 [Example 19, [7-(3,5-Difluoro-phenyl)-2-methyl-thiazolo[4,5-c]pyridin-4-yl]-(4-methyl-thiazol-2-yl)-amine] | 29 nM
Cc1ccc(Nc2ncc(-c3cncc(F)c3)c3sc(C)nc23)nc1 [Example 20, [7-(5-Fluoro-pyridin-3-yl)-2-methyl-thiazolo[4,5-c]pyridin-4-yl]-(5-methyl-pyridin-2-yl)-amine] | 87 nM
